The text below walks through data of patent US7485669B2, “Blockade of sodium channels by phenol derivatives” (B. Braun Melsungen AG, priority 2000, dated 2009).

Read-outs that look alike come from different tables or passages of the source.

The target of assay [1] is T1, human skeletal muscle sodium channels (Homo sapiens, UniProt P35499).
T1 construct: expressed in transfected cells
Description: Whole-cell voltage-clamp of heterologously expressed human skeletal muscle sodium channels in HEK 293 cells. Type of assay: cell-based. The conditions noted are these: for time constant of channel inactivation τh: 40 ms steps −100 mV to 0 mV, control 0.43±0.08 ms; for frequency-dependent block: additional fall relative to the first pulse: 100 Hz train, −100 mV to 0 mV. The text has this:
The sodium channel blocking potency effects of different phenol derivatives with methyl and halogen substituents have been studied on heterologously expressed human skeletal muscle sodium channels. The phenol derivatives encompassed by formula (I) are either commercially available or can be synthesized by conventional standard laboratory methods.
Wild type α-subunits of human muscle sodium channels were heterologously expressed in human embryonic kidney (HEK 293) cells, a stable cell line since […] (American Tissue Culture Collection CRL 1573). Transfection was performed using calcium phosphate precipitation (Graham & Van der Eb, Virology, 52 (1973) 456-467). Permanent expression was achieved by selection for resistance to the aminoglycoside antibiotic geneticin G418 (Life Technology, Eggenstein, Germany) (Mitotic et al., J. Physiol., 478 (1994) 395-402). Successful channel expression was verified electrophysiologically. The clone has been used in several investigations (Haeseler et al.,Br. J. Pharmacol., 128 (1999) 1259-67; Haeseler et al., Br. J. Pharmacol. 130 (2000) 1321-1330; Mitrovic et al., ibid.).
3,5-dimethyl-4-chlorophenol (according to the invention) and 3-methylphenol (not according to the invention) were purchased from Sigma Chemicals, Deisenhofen, Germany; 4-chloro-2-methylphenol (not according to the invention) and 4-chlorophenol (not according to the invention) were from FLUKA, Deisenhofen, Germany. 3,5-Dimethyl-4-chlorophenol was prepared as a 1 M stock solution in methanol; 4-chloro-2-methylphenol, 4-chlorophenol, and 3-methylphenol were dissolved directly in the bath solution immediately before the experiments. Concentrations were calculated from the amount injected into the glass vials. Drug-containing solutions were protected from light and were vigorously vortexed for 60 min. The solution was applied via a glass polytetrafluoroethylene perfusion system and a stainless steel superfusion pipette. The bath solution contained (mM) NaCl 140, MgCl2 1.0, KCl 4.0, CaCl2 2.0, Hepes 5.0, dextrose 5.0. Patch electrodes contained (mM) […] 130, MgCl2 2.0, EGTA 5.0, Hepes 10. All solutions were adjusted to 290 mosm/l by the addition of mannitol and to pH 7.4 by the addition of CsOH.
Standard whole-cell voltage-clamp experiments (Hamill et al., Pfuegers Arch., 391 (1981) 85-100) were performed at 20° C. Each experiment consisted of test recordings with the drug present at only one concentration, and of drug-free control recordings before and after the test. Each whole-cell patch was exposed to one test concentration only. At least four experiments were performed at each concentration. The amount of the diluent methanol corresponding to the test concentration of 3,5-dimethyl-4-chlorophenol was added to the control solution. Patched cells were lifted into the visible stream of either bath solution or test solution, applied via a two-channel superfusion pipette close to the cell. To ensure adequate adjustment of the application device, one test experiment in distilled water reducing inward sodium current to zero was performed every 6-10 experiments.
For data acquisition and further analysis we used the EPC9 digitally-controlled amplifier in combination with Pulse and Pulse Fit software (HEKA Electronics, Lambrecht, Germany). The EPC9 provides automatic subtraction of capacitive and leakage currents by means of a prepulse protocol. The data were filtered at 10 kHz and digitized at 20 μs per point. Input resistance of the patch pipettes was at 1.8-2.5 MΩ. Only small cells with capacitances of 9-15 pF were used; residual series resistance (after 50% compensation) was 1.2-2.5 MΩ; experiments with a rise in series resistance were rejected. The time constant of the voltage settling within the membrane (residual series resistance×cell capacitance) was less than 35 μs. […]

Assay [2] addresses heterologously expressed muscle sodium channels (Homo sapiens, UniProt P35499). The conditions noted are these: −100 mV; Fan et al. 1996; read-out: IC50 for block of heterologously expressed muscle sodium channels at −100 mV; cited from earlier work.
Setting [3] is: IC50 for block of inward sodium current at a holding potential of −150 mV, holding potential −150 mV, 10 ms pulse to 0 mV.
Where [4] appears, read: IC50 for block of sodium currents on depolarization from -100 mV to 0 mV, holding potential −100 mV, test pulse to 0 mV.

The Kd is the equilibrium constant for the complex coming apart. Usually IC50 stands for the concentration that gives 50% inhibition.

T1 sequence (P35499 whole entry): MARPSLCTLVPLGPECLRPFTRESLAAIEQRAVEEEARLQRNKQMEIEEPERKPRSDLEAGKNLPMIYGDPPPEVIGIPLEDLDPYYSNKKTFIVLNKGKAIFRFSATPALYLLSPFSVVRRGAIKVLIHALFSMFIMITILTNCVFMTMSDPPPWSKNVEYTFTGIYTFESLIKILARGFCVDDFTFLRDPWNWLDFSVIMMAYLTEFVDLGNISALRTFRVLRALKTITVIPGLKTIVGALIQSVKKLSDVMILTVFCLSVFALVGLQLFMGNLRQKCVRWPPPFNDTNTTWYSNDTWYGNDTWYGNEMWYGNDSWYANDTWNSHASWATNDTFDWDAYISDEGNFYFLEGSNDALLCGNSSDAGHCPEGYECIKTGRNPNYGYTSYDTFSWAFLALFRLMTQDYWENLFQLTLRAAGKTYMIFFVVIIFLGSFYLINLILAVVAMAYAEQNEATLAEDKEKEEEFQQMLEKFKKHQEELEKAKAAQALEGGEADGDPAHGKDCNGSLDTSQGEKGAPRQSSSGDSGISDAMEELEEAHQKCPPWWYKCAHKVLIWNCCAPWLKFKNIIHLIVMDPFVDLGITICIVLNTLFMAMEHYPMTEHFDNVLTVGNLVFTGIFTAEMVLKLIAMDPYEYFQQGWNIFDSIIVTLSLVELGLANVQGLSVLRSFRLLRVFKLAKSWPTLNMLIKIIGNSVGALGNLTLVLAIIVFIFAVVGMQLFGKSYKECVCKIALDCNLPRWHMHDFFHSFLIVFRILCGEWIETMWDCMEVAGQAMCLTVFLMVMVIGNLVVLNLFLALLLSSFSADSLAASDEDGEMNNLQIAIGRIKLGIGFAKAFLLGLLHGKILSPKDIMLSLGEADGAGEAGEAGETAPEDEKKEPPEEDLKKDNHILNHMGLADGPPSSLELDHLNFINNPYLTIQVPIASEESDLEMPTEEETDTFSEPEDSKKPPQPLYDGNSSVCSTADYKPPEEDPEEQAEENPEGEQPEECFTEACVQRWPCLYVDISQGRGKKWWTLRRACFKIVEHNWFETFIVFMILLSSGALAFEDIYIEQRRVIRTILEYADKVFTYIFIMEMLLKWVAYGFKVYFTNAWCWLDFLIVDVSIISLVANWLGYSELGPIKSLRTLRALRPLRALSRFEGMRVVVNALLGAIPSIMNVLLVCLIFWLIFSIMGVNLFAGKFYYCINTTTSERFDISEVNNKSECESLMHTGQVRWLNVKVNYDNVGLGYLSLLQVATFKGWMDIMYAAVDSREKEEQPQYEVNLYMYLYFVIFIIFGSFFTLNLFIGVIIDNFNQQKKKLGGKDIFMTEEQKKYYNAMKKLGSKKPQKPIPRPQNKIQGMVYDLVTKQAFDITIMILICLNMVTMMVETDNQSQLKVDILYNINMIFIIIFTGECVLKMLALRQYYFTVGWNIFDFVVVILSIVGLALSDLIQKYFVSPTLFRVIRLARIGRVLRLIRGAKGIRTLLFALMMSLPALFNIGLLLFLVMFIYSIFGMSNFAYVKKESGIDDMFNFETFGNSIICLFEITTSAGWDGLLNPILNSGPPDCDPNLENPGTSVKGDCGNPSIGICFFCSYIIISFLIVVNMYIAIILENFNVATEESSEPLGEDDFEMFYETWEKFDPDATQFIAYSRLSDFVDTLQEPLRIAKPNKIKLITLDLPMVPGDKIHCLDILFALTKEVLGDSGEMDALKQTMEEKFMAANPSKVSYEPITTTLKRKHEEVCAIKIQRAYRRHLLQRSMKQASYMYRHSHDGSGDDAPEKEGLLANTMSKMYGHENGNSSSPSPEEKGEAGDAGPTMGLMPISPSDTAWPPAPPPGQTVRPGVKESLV
Chain of heterologously expressed muscle sodium channels (P35499 whole entry): as above

With `Cc1cc(O)cc(C)c1Cl` [3,5-dimethyl-4-chlorophenol], the “time constant of channel inactivation τh” value in assay [1] (50 μM drug) is 0.27 ± 0.02 ms. The “frequency-dependent block: additional fall relative to the first pulse” value in assay [1] (300 μM drug) was 17±5%. Besides, in assay [1] (derived from drug-induced shifts in steady-state availability curves, read-out: KD for the fast-inactivated state), the Kd turned out to be 14 µM. Besides, the concentration for half-maximal inhibition (IC50) in assay [1] (holding potential −100 mV, test pulse to 0 mV, read-out: IC50 for block of sodium currents on depolarization from -100 mV to 0 mV) came out at 150 µM; in assay [1] (holding potential −150 mV, 10 ms pulse to 0 mV, read-out: IC50 for block of inward sodium current at a holding potential of −150 mV) it was 162 µM.

With `Cc1cccc(O)c1` [3-methylphenol], the “time constant of channel inactivation τh” value in assay [1] (1000 μM drug) came out at 0.30 ± 0.08 ms. Further, the “frequency-dependent block: additional fall relative to the first pulse” value in assay [1] (3000 μM drug) is recorded as 8±2%. The IC50 in assay [1] (setting [3]) turned out to be 2400 µM; in assay [1] (setting [4]), 2160 µM.

Take `Cc1cc(Cl)ccc1O` [4-chloro-2-methylphenol]: in assay [1] (100 μM drug), the “time constant of channel inactivation τh” value was found to be 0.27 ± 0.05 ms. For the same compound, the “frequency-dependent block: additional fall relative to the first pulse” value in assay [1] (500 μM drug) is listed as 16±5%. Further, the half-maximal inhibitory concentration (IC50) in assay [1] (setting [3]) turned out to be 316 µM; in assay [1] (setting [4]), 268 µM.

Take `Oc1ccc(Cl)cc1` [4-chlorophenol]: the “time constant of channel inactivation τh” value in assay [1] (500 μM drug) was 0.23 ± 0.03 ms. For the same compound, the “frequency-dependent block: additional fall relative to the first pulse” value in assay [1] (1000 μM drug) was determined as 13±2%. The results for the IC50 in assay [1] (setting [3]) and in assay [1] (setting [4]) were 751 µM and 666 µM, respectively.

Consider `CCN(CC)CC(=O)Nc1c(C)cccc1C` [lidocaine, 2-diethylamino-2′,6′-dimethylacetanilide], for which, in assay [2], the IC50 is 500 µM.
